The source of these data is PMC5162400, “Discovery of novel inhibitors disrupting HIF-1α/von Hippel–Lindau interaction through shape-based screening and cascade docking” (PeerJ, 2016).

Test [1] has as its target T1, pVHL (Homo sapiens, UniProt P40337). Set-up: method as in earlier work. The settings on record: native ligands of pVHL crystal complexes, labelled by PDB ID, ref Buckley et al., 2012b, Van-Molle et al., 2012a, Dias et al., 2014, Galdeano et al., read-out: Kd of native ligand; cited from earlier work.
The target of test [2] is T1, pVHL. The experiment in a line: Fluorescence polarization binding assay (FAM-DEALA-Hyp-YIPD displacement from V1-213CB). The settings on record: inhibition of HIF-1α/pVHL interaction, mean ± SEM. A general note: Fluorescence polarisation rises when a labelled molecule tumbles more slowly, as on binding a larger partner.
Experimental: The fluorescence intensities parallel (Intparallel) and perpendicular (Intperpedicular) to the plane of excitation were measured in black 96-well NBS assay plates (Greiner Microlon) at room temperature. The plate was then shaken for 1 min and centrifuged for 1 min. […] The inhibition percentage was determined by normalizing to maximum and minimum polarization and graphed against the log [VL].

T1 sequence (P40337 whole entry): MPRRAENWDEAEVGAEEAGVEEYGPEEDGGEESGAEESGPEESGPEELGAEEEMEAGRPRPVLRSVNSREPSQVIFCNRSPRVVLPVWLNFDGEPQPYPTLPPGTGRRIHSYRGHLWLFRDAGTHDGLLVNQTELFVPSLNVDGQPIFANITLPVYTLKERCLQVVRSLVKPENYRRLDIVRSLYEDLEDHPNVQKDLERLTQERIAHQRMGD
T1 sequence (Q15369 whole entry partner): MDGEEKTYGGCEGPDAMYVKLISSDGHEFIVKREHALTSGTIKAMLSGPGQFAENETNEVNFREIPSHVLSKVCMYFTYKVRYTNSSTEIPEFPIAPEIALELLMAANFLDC
T1 sequence (Q15370 whole entry partner): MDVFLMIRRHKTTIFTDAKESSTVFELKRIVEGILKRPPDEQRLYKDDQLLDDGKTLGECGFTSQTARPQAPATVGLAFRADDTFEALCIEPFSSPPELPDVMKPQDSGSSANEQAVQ

Regarding `Cc1ncsc1-c1ccc(CNC(=O)C2CC(O)CN2C(=O)c2cccc(N)c2C)cc1` (stereo not drawn) [Compound 4B9K], the Kd (commonly the concentration at which binding is half-saturated) at pVHL [1] is 0.7 µM.

Consider `c1ccc(-c2ccc(-c3nc4ccc(-c5ccccc5)cc4o3)cc2)cc1` [Compound 6], for which the IC50 (in general, the concentration needed to halve the response being measured) on pVHL [2] came out at 102 ± 6.13 µM.

`CC1=NN(c2ccccc2)C(=O)/C1=N\Nc1ccc(N2CCOCC2)cc1` [Compound 9] returned a 50% inhibitory concentration (IC50) at pVHL [2] of 2 ± 0.14 µM.
